Here are results for 42 compounds from patent US20260166039A1 (SCHRÖDINGER, INC., priority 2022, published 2026).

Broadly, the IC50 is the point on the concentration scale where inhibition reaches its midpoint. Higher therefore signals a need for much substance.

T1 sequence (P30291 299-569 limits assumed): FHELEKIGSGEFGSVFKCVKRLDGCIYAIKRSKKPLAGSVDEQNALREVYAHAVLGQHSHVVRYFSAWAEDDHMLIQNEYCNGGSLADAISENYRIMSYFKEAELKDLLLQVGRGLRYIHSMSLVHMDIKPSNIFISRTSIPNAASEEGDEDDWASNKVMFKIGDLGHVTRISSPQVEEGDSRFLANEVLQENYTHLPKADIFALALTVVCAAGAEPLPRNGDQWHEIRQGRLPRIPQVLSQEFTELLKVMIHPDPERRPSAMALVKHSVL

The assay has as its target T1, Wee1 kinase domain (Homo sapiens, UniProt P30291).
T1 construct: Wee1 kinase domain was purchased from Carna (catalog #05-177); purchased Carna 05-177
In words: Wee1 Kinase Biochemical Assay (ADP-Glo). Particulars: Wee1 kinase domain, 15 uM ATP, ADP-Glo. The gist of the method: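 ADP-Glo detection of ADP produced after 4 h at 25° C by 1 nM Wee1 kinase domain on 2 ng/mL poly(Lys,Tyr 4:1) with 15 uM ATP. Buffer: 40 mM Tris-HCl, 20 mM MgCl2, 0.1 mg/mL BSA, 2 mM DTT. Inhibition is relative to DMSO (high) and saturating Wee1 inhibitor (low) controls.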
In general terms: ADP-Glo turns the ADP formed in a reaction into a luminescent signal.
Turning to `C[C@H]1COC(=O)N1c1cccc(N2c3nc(Nc4ccn(C5CCN(C)CC5)c(=O)c4)ncc3[C@]3(C)COC(C)(C)C[C@H]23)n1` (single isomer, unassigned) [Example 272], the IC50 is 10 to 100 nM.

In the case of `C[C@H]1COC(=O)N1c1cccc(N2c3nc(Nc4ccc([C@@H]5CCNC5)cc4)ncc3[C@]3(C)COC(C)(C)C[C@H]23)n1` (single isomer, unassigned) [Example 274], the IC50 fell in the range of 10 to 100 nM.

Regarding `C[C@H]1COC(=O)N1c1cccc(N2c3nc(Nc4ccc(N5C[C@H]6C[C@@H]5CN6)cc4)ncc3[C@]3(C)COC(C)(C)C[C@H]23)n1` (single isomer, unassigned) [Example 276], the IC50 was in the range of 10 to 100 nM.

Compound `C[C@H]1COC(=O)N1c1cccc(N2c3nc(Nc4ccc([C@H]5CCNC5)cc4)ncc3[C@]3(C)COC(C)(C)C[C@H]23)n1` (single isomer, unassigned) [Example 278] gave an IC50 of 10 to 100 nM.

`C[C@H]1COC(=O)N1c1cccc(N2c3nc(Nc4ccc(O[C@H]5CCN(C)C5)nc4)ncc3[C@]3(C)COC(C)(C)C[C@H]23)n1` (single isomer, unassigned) [Example 280]: the IC50 was 100 to 1000 nM.

Compound `C[C@H]1COC(=O)N1c1cccc(N2c3nc(Nc4ccc(O[C@@H]5CCN(C)C5)nc4)ncc3[C@]3(C)COC(C)(C)C[C@H]23)n1` (single isomer, unassigned) [Example 282] yielded an IC50 of 100 to 1000 nM.

The compound `C[C@H]1COC(=O)N1c1cccc(N2c3nc(Nc4ccc(O[C@H]5CCNC5)nc4)ncc3[C@]3(C)COC(C)(C)C[C@H]23)n1` (single isomer, unassigned) [Example 284] gave a concentration for half-maximal inhibition (IC50) of 10 to 100 nM.

For the compound `C[C@H]1COC(=O)N1c1cccc(N2c3nc(Nc4ccc(O[C@@H]5CCNC5)nc4)ncc3[C@]3(C)COC(C)(C)C[C@H]23)n1` (single isomer, unassigned) [Example 286], the IC50 was 100 to 1000 nM.

For the compound `Cc1cc(Nc2ncc3c(n2)N(c2cccc(N4C(=O)OC[C@@H]4C)n2)[C@H]2CC(C)(C)OC[C@@]32C)ccc1N1C[C@H]2C[C@@H]1CN2C` (single isomer, unassigned) [Example 288], the IC50 fell in the range of 10 to 100 nM.

Turning to `C[C@H]1COC(=O)N1c1cccc(N2c3nc(Nc4ccc(N5C[C@H]6C[C@@H]5CN6C)c(F)c4)ncc3[C@]3(C)COC(C)(C)C[C@H]23)n1` (single isomer, unassigned) [Example 290], the IC50 is less than 10 nM.

On to `C[C@H]1COC(=O)N1c1cccc(N2c3nc(Nc4ccc(N5C[C@@H]6C[C@H]5CN6C)c(F)c4)ncc3[C@]3(C)COC(C)(C)C[C@H]23)n1` (single isomer, unassigned) [Example 292], for which the half-inhibitory concentration (IC50) fell in the range of 10 to 100 nM.

As to `Cc1cc(Nc2ncc3c(n2)N(c2cccc(N4C(=O)OC[C@@H]4C)n2)[C@H]2CC(C)(C)OC[C@@]32C)ccc1N1C[C@@H]2C[C@H]1CN2C` (single isomer, unassigned) [Example 294], the IC50 lay within 10 to 100 nM.

Compound `C[C@H]1COC(=O)N1c1cccc(N2c3nc(Nc4ccc(C5CCN(C)CC5)nc4)ncc3[C@]3(C)COC(C)(C)C[C@H]23)n1` (single isomer, unassigned) [Example 296] came in with an IC50 of less than 10 nM.

`C[C@H]1COC(=O)N1c1cccc(N2c3nc(Nc4ccc(N5CCCN(C)CC5)cc4)ncc3[C@]3(C)COC(C)(C)C[C@H]23)n1` (single isomer, unassigned) [Example 298]: the IC50 fell in the range of 10 to 100 nM.

In the case of `C[C@H]1COC(=O)N1c1cccc(N2c3nc(Nc4ccc(C(C)(C)C)nc4)ncc3[C@]3(C)COC(C)(C)C[C@H]23)n1` (single isomer, unassigned) [Example 300], the IC50 was in the range of 100 to 1000 nM.

On to `C[C@H]1COC(=O)N1c1cccc(N2c3nc(Nc4ccc(C5(C)COC5)cc4)ncc3[C@]3(C)COC(C)(C)C[C@H]23)n1` (single isomer, unassigned) [Example 302], for which the IC50 lay within 100 to 1000 nM.

For the compound `C[C@H]1COC(=O)N1c1cccc(N2c3nc(Nc4ccc([C@@H]5CCN(C)C5)cc4)ncc3[C@]3(C)COC(C)(C)C[C@H]23)n1` (single isomer, unassigned) [Example 304], the IC50 is 10 to 100 nM.

In turn, `C[C@H]1COC(=O)N1c1cccc(N2c3nc(Nc4ccc([C@H]5CCN(C)C5)cc4)ncc3[C@]3(C)COC(C)(C)C[C@H]23)n1` (single isomer, unassigned) [Example 307] had an IC50 of less than 10 nM.

The compound `C[C@H]1COC(=O)N1c1cccc(N2c3nc(Nc4ccc(C5CNC5)cc4)ncc3[C@]3(C)COC(C)(C)C[C@H]23)n1` (single isomer, unassigned) [Example 308] showed an IC50 of 10 to 100 nM.

Regarding `C[C@H]1COC(=O)N1c1cccc(N2c3nc(Nc4ccc(C5CN(C)C5)cc4)ncc3[C@]3(C)COC(C)(C)C[C@H]23)n1` (single isomer, unassigned) [Example 309], the half-inhibitory concentration (IC50) is 10 to 100 nM.

With `C[C@@H]1CN(c2ccc(Nc3ncc4c(n3)N(c3cccc(N5C(=O)OC[C@@H]5C)n3)[C@H]3CC(C)(C)OC[C@@]43C)cc2)CCN1C` (single isomer, unassigned) [Example 312], the IC50 lay within 10 to 100 nM.

Compound `C[C@H]1CN(c2ccc(Nc3ncc4c(n3)N(c3cccc(N5C(=O)OC[C@@H]5C)n3)[C@H]3CC(C)(C)OC[C@@]43C)cc2)CCN1C` (single isomer, unassigned) [Example 314] had an IC50 of 10 to 100 nM.

For the compound `CN[C@H]1CCN(c2ccc(Nc3ncc4c(n3)N(c3cccc(N5C(=O)OC[C@@H]5C)n3)[C@H]3CC(C)(C)OC[C@@]43C)cc2)C1` (single isomer, unassigned) [Example 316], the IC50 was 10 to 100 nM.

`CN[C@@H]1CCN(c2ccc(Nc3ncc4c(n3)N(c3cccc(N5C(=O)OC[C@@H]5C)n3)[C@H]3CC(C)(C)OC[C@@]43C)cc2)C1` (single isomer, unassigned) [Example 318] showed an IC50 of 10 to 100 nM.

In turn, `CN[C@@H](Cc1ccc(Nc2ncc3c(n2)N(c2cccc(N4C(=O)OC[C@@H]4C)n2)[C@H]2CC(C)(C)OC[C@@]32C)cc1)C(=O)O` (single isomer, unassigned) [Example 320] showed an IC50 of 100 to 1000 nM.

In turn, `CN[C@H](Cc1ccc(Nc2ncc3c(n2)N(c2cccc(N4C(=O)OC[C@@H]4C)n2)[C@H]2CC(C)(C)OC[C@@]32C)cc1)C(=O)O` (single isomer, unassigned) [Example 322] returned an IC50 of 100 to 1000 nM.

Compound `C[C@H]1COC(=O)N1c1cccc(N2c3nc(Nc4ccc(OC5CCNCC5)nc4)ncc3[C@]3(C)COC(C)(C)C[C@H]23)n1` (single isomer, unassigned) [Example 324] returned a half-inhibitory concentration (IC50) of 100 to 1000 nM.

`C[C@H]1COC(=O)N1c1cccc(N2c3nc(Nc4ccc(O[C@@H]5CCNC5)cc4)ncc3[C@]3(C)COC(C)(C)C[C@H]23)n1` (single isomer, unassigned) [Example 326]: the IC50 lay within 10 to 100 nM.

In turn, `C[C@H]1COC(=O)N1c1cccc(N2c3nc(Nc4ccc(O[C@H]5CCNC5)cc4)ncc3[C@]3(C)COC(C)(C)C[C@H]23)n1` (single isomer, unassigned) [Example 328] registered an IC50 of 100 to 1000 nM.

`C[C@H]1COC(=O)N1c1cccc(N2c3nc(Nc4ccc(O[C@@H]5CCN(C)C5)cc4)ncc3[C@]3(C)COC(C)(C)C[C@H]23)n1` (single isomer, unassigned) [Example 330] yielded an IC50 of 10 to 100 nM.

Compound `C[C@H]1COC(=O)N1c1cccc(N2c3nc(Nc4ccc(O[C@H]5CCN(C)C5)cc4)ncc3[C@]3(C)COC(C)(C)C[C@H]23)n1` (single isomer, unassigned) [Example 332] had an IC50 of 10 to 100 nM.

With `C[C@H]1COC(=O)N1c1cccc(N2c3nc(Nc4ccc(OC5CCN(C)CC5)nc4)ncc3[C@]3(C)COC(C)(C)C[C@H]23)n1` (single isomer, unassigned) [Example 334], the IC50 lay in the range of 100 to 1000 nM.

`Cc1cc(Nc2ncc3c(n2)N(c2cccc(N4C(=O)OC[C@@H]4C)n2)[C@H]2CC(C)(C)OC[C@@]32C)ccc1O[C@@H]1CCNC1` (single isomer, unassigned) [Example 336]: the IC50 lay within 10 to 100 nM.

As to `Cc1cc(Nc2ncc3c(n2)N(c2cccc(N4C(=O)OC[C@@H]4C)n2)[C@H]2CC(C)(C)OC[C@@]32C)ccc1O[C@H]1CCNC1` (single isomer, unassigned) [Example 338], the IC50 was in the range of 10 to 100 nM.

`C[C@H]1COC(=O)N1c1cccc(N2c3nc(Nc4ccn(C)c(=O)c4)ncc3[C@]3(C)COC(C)(C)C[C@H]23)n1` (single isomer, unassigned) [Example 340] registered an IC50 of 100 to 1000 nM.

As for `C[C@H]1COC(=O)N1c1cccc(N2c3nc(Nc4ccc(OC5CNC5)nc4)ncc3[C@]3(C)COC(C)(C)C[C@H]23)n1` (single isomer, unassigned) [Example 342], the IC50 was in the range of 100 to 1000 nM.

`Cc1cc(Nc2ncc3c(n2)N(c2cccc(N4C(=O)OC[C@@H]4C)n2)[C@H]2CC(C)(C)OC[C@@]32C)ccc1O[C@H]1CCN(C)C1` (single isomer, unassigned) [Example 344] displayed an IC50 of 10 to 100 nM.

With `Cc1cc(Nc2ncc3c(n2)N(c2cccc(N4C(=O)OC[C@@H]4C)n2)[C@H]2CC(C)(C)OC[C@@]32C)ccc1O[C@@H]1CCN(C)C1` (single isomer, unassigned) [Example 346], the IC50 lay within 10 to 100 nM.

On to `C[C@H]1COC(=O)N1c1cccc(N2c3nc(Nc4ccc([C@@]5(C)CCN(C)C5)cc4)ncc3[C@]3(C)COC(C)(C)C[C@H]23)n1` (single isomer, unassigned) [Example 348], for which the IC50 lay within 10 to 100 nM.

In turn, `C[C@H]1COC(=O)N1c1cccc(N2c3nc(Nc4ccc([C@]5(C)CCN(C)C5)cc4)ncc3[C@]3(C)COC(C)(C)C[C@H]23)n1` (single isomer, unassigned) [Example 350] gave an IC50 of 10 to 100 nM.

On to `C[C@H]1COC(=O)N1c1cccc(N2c3nc(Nc4ccc(N5C[C@H]6C[C@@H](C5)N6C)cc4)ncc3[C@]3(C)COC(C)(C)C[C@H]23)n1` (single isomer, unassigned) [Example 353], for which the IC50 was in the range of 10 to 100 nM.

The compound `C[C@H]1COC(=O)N1c1cccc(N2c3nc(Nc4ccc(N5CC6(CN(C)C6)C5)cc4)ncc3[C@]3(C)COC(C)(C)C[C@H]23)n1` (single isomer, unassigned) [Example 354] displayed a half-inhibitory concentration (IC50) of 10 to 100 nM.
